US20100069384A1, “5-ALKYLOXY-INDOLIN-2-ONE DERIVATIVES, PREPARATION THEREOF AND APPLICATION THEREOF IN THERAPY” (SANOFI-AVENTIS, priority 2006, published 2010)
pIC50: −log10 of the molar value.

Columns and labels:
[1] = biological target: V1a receptors (Homo sapiens, UniProt P37288); assay: affinity for V1a receptors (method of Thibonnier et al.); assay type: binding; settings: for IC50 V1a/IC50 V2: selectivity ratio versus V2
Experimental: (§1) The affinity of the compounds of the invention for the Via and V1b vasopressin receptors and the affinity of the compounds of the invention for the oxytocin (OXT) receptors were also tested.
(§2) The affinity of the compounds according to the invention for human Via receptors was determined according to the method described by M. Thibonnier et al. in J. Biol. Chem. 1994, 269, 3304-3310. The affinity of the compounds according to the invention for the V1b receptors was determined according to the method described by T. Sugimoto et al. in J. Biol. Chem. 1994, 269, 27088-27092.

[2] = biological target: T1, human recombinant V2 vasopressin receptors (Homo sapiens, UniProt P30518); assay: in vitro binding test, displacement of [H3]-AVP from V2 vasopressin receptors; settings: CHO membranes, 3.5 nM [H3]-AVP, 45 minutes at 25° C.
T1 construct: expressed in transfected cells; host or cells: CHO
Experimental: The affinity of the compounds of the invention for the V2 vasopressin receptors was measured in in vitro binding tests, as described in J. Pharmacol. Exp. Ther., (2002), 300: pp. 1122-1130.
Plasma membranes (about 20 μg/ml) obtained from CHO tissue or cell line expressing human recombinant V2 vasopressin receptors, are incubated for 45 minutes at 25° C. in 200 μL of TRIS-HCl buffer (50 mM; pH 8.2) containing 2 mM of MgCl2, 1 mM of EDTA, 0.1% of BSA, 1/500 protease inhibitor cocktail (Sigma #P2714) and 3.5 nM of [H3]-AVP. The reaction is stopped by filtration and washing on GF/B filters. Nonspecific binding is determined in the presence of 1 μM of AVP. The compounds of the invention, dissolved beforehand to a concentration of 10^−2 M in DMSO, are tested in a dilution series.
For each concentration the results are expressed as percentage inhibition of specific binding. An IC50 (concentration of product inhibiting 50% of specific binding) is determined for each of the products using the in-house software Biost@t-SPEED v1.3 which employs the 4-parameter logistic model of Ratkovsky and Reedy (1986). Adjustment is obtained by nonlinear regression using Marquardt's algorithm of the SAS v8.2 software running under UNIX.

[3] = biological target: T2, V1b receptors (Homo sapiens, UniProt P47901); assay: affinity for V1b receptors (method of Sugimoto et al.); assay type: binding; settings: for IC50 V1b/IC50 V2: selectivity ratio versus V2
T2 sequence (P47901 1-424): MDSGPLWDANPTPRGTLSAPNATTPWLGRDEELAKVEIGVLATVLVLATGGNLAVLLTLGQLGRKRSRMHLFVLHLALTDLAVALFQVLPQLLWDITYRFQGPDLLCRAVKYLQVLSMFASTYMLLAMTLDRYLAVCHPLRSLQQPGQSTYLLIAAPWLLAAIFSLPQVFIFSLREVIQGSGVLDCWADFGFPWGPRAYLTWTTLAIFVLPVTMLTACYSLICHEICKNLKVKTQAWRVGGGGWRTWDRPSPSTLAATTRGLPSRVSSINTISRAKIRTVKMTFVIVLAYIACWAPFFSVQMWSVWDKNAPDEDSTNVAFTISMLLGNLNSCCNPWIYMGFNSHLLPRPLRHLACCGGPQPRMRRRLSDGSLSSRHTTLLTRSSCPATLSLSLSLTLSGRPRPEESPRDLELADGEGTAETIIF
Experimental: as §1, §2

[4] = biological target: T3, human oxytocin receptors (Homo sapiens, UniProt P30559); assay: in vitro binding test, displacement of a radioiodated oxytocin analogue from oxytocin receptors; settings: for pIC50: membrane preparation of human oxytocin receptors; for IC50 OXT/IC50 V2: selectivity ratio versus V2
T3 sequence (P30559 1-389): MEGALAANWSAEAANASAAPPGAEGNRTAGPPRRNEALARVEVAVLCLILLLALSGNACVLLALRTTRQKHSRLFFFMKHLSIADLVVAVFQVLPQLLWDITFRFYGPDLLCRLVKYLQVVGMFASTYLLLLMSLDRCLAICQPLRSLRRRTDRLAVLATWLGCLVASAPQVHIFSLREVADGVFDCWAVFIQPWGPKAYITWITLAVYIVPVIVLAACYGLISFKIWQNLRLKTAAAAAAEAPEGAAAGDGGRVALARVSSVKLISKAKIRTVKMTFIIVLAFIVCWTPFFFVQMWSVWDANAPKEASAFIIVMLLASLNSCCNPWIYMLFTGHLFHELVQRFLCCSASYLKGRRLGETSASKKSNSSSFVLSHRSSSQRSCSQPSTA
Experimental: as §1
The affinity of the compounds according to the invention for the OXT receptors was determined in an in vitro binding test using the method described by J. Elands et al. in Eur. J. Pharmacol. 1987, 147, 197-207. This method comprises in vitro investigation of the displacement of a radioiodated analogue of oxytocin from the oxytocin receptors in a membrane preparation of human oxytocin receptors.

T1 sequence (P30518 whole entry): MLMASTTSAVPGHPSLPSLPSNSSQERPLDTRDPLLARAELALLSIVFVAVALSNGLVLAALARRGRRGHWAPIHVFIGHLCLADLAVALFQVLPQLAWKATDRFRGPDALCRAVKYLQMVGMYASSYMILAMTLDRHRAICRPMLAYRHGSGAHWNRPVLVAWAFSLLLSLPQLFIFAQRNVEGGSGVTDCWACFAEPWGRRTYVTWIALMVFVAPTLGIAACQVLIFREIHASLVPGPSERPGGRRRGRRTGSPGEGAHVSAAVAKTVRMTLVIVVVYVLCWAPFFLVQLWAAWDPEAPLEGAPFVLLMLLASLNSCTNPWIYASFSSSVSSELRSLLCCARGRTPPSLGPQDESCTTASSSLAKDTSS
V1a receptors, sequence (P37288 whole entry): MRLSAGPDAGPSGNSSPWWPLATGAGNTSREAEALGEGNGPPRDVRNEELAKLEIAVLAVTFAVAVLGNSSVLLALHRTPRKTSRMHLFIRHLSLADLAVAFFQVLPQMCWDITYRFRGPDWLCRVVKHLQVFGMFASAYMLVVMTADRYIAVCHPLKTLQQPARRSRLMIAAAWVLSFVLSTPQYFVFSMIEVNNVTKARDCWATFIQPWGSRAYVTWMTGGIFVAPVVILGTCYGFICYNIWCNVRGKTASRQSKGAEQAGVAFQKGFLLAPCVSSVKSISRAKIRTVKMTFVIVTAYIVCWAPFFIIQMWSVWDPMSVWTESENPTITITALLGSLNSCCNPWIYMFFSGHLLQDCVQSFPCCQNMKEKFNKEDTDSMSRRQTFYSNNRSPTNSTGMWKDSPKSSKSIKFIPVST

| pIC50 [1] | IC50 V1a/IC50 V2 [1] | pIC50 [2] | melting point [°C] | pIC50 [3] | IC50 V1b/IC50 V2 [3] | pIC50 [4] | IC50 OXT/IC50 V2 [4] | SMILES |
| --- | --- | --- | --- | --- | --- | --- | --- | --- |
| 6.14 | >100 | 8.89 | 216 | < 6.00 | >100 | 6.15 | >100 | CCOc1ccc2c(c1)C(C)(c1cc(C(=O)N[C@@H]3CCNC3)ccc1Cl)C(=O)N2S(=O)(=O)c1ccc(C(=O)NC(C)(C)C)cc1OC (single isomer, unassigned) [Example 43] |
| 6.59 | >100 | 9.00 | 148 | < 6.00 | >100 | 6.15 | >100 | CCOc1ccc2c(c1)C(C)(c1ccccc1)C(=O)N2S(=O)(=O)c1ccc(C(=O)NC(C)(C)C)cc1OC (single isomer, unassigned) [Example 99, N-tert-butyl-3-methoxy-4-[3-methyl-3-phenyl-5-ethoxy-2-oxo-2,3-dihydroindole-1-sulphonyl]benzamide] |
| < 6.00 | >100 | 8.28 | 124 | < 6.00 | >100 | 6.46 | 67 | CCOc1ccc2c(c1)C(C)(c1cc(C(=O)NCCN3CCOCC3)ccc1Cl)C(=O)N2S(=O)(=O)c1ccc(C(=O)NC(C)(C)C)cc1OC (stereo not shown) [Example 36, 4-chloro-3-[1-(4-tert-butylcarbamoyl-2-methoxybenzenesulphonyl)-5-ethoxy-3-methyl-2-oxo-2,3-dihydro-1H-indol-3-yl]-N-(2-morpholin-4-ylethyl)benzamide] |
| 6.20 | >100 | 8.60 | 180 | < 6.00 | >100 | < 6.00 | >100 | CCOc1ccc2c(c1)C(C)(c1cc(NC(=O)C3CCN(C)CC3)ccc1Cl)C(=O)N2S(=O)(=O)c1ccc(C(=O)NC(C)(C)C)cc1OC (stereo not shown) [Example 62, 1-methylpiperidine-4-carboxylic acid {3-[1-(4-tert-butylcarbamoyl-2-methoxy-benzenesulphonyl)-5-ethoxy-3-methyl-2-oxo-2,3-dihydro-1H-indol-3-yl]-4-chlorophenyl}-amide] |

The next lines start with the compound.

| SMILES | pIC50 [1] | IC50 V1a/IC50 V2 [1] | pIC50 [2] | melting point [°C] | pIC50 [3] | IC50 V1b/IC50 V2 [3] | pIC50 [4] | IC50 OXT/IC50 V2 [4] |
| --- | --- | --- | --- | --- | --- | --- | --- | --- |
| CCOc1ccc2c(c1)C(C)(c1ccccc1Cl)C(=O)N2S(=O)(=O)c1ccc(C(=O)NC(C)(C)C)cc1 (single isomer, unassigned) [Example 12, N-tert-butyl-4-[3-(2-chlorophenyl)-5-ethoxy-3-methyl-2-oxo-2,3-dihydroindole-1-sulphonyl]benzamide] | 6.35 | >100 | 8.72 | 153 | < 6.00 | >100 | 6.85 | 74 |
| CCNC(=O)c1ccc(Cl)c(C2(C)C(=O)N(S(=O)(=O)c3ccc(C(=O)NC(C)(C)C)cc3OC)c3ccc(OCC)cc32)c1 (stereo not shown) [Example 21, 4-chloro-3-[1-(4-tert-butylcarbamoyl-2-methoxybenzenesulphonyl)-5-ethoxy-3-methyl-2-oxo-2,3-dihydro-1H-indol-3-yl]-N-ethylbenzamide] | 6.47 | >100 | 8.52 | 176 | < 6.00 | >100 | < 6.00 | >100 |
| CCOc1ccc2c(c1)C(C)(c1ccccc1Cl)C(=O)N2S(=O)(=O)c1ccc(C(=O)NC(C)(C)CO)cc1 (stereo not shown) [Example 72, 4-[3-(2-chlorophenyl)-5-ethoxy-3-methyl-2-oxo-2,3-dihydroindole-1-sulphonyl]-N-(2-hydroxy-1,1-dimethylethyl)benzamide] | < 6.00 | >100 | 8.89 | 152 | 6.03 | >100 | 6.41 | >100 |
| COc1cc(C(=O)NC(C)(C)C)ccc1S(=O)(=O)N1C(=O)C(C)(c2ccccc2Cl)c2cc(O)ccc21 (stereo not shown) [Example 144] | 6.51 | >100 | 8.59 | 166 | < 6.00 | >100 | 6.89 | 50 |
